{"source": "patent US20080044439A1", "about": "“Compositions and Methods for Preventing and Treating Skin and Hair Conditions” (priority 2004, published 2008)", "origin": "cited, not measured here", "system": "albino guinea pigs"}
{"smiles": "CC(C)Cn1cnc2c(N)nc3ccccc3c21", "note": "[imiquimod]", "values": [{"measurement": "fading the tattoo, macroscopically and histologically", "setting": "5 percent cream applied every 6 hours for seven days, evaluated at seven and 28 days after tattoo placement, compared with petrolatum, tretinoin 0.025 percent, tretinoin alternated with imiquimod", "result": "most effective regimen for fading the tattoo"}, {"measurement": "biopsy evaluation of the treated site", "setting": "guinea pig, in vivo", "result": "epidermal and dermal necrosis with separation, severe inflammation and fibrosis, and disruption of the skin appendages"}]}
